This assay has as its system HL-60. As to the kind of experiment: Cytotoxicity against human HL60 cells after 72 hrs by MTT method. Format: functional, cell-based. The conditions noted are these: HL-60, 72 h.

SMILES strings stand for the structures.

In the case of `C=C(C)[C@@]1(O)[C@@H]2OC3(c4ccccc4)O[C@H]1[C@@H](C)[C@@]1(O3)[C@H]2[C@H](OC(C)=O)[C@@](C)(OC(=O)c2ccccc2)[C@@H](O)[C@@]2(OC(C)=O)[C@H]1C[C@H](C)[C@@H]2OC(C)=O` [TRIGOHOWNIN A], the IC50 stood at 17 µM. In other words, the double-digit micromolar range.
With `C=C(C)[C@@]12OC3(c4ccccc4)O[C@@H]1[C@@H]1[C@H](OC(C)=O)[C@@](C)(O)[C@@H](OC(C)=O)[C@@]4(OC(=O)c5ccccc5)[C@@H](C[C@H](C)[C@@H]4OC(C)=O)[C@@]1(O3)[C@H](C)[C@@H]2OC(C)=O` [TRIGOHOWNIN D] the figure was 9.3 µM.

(Values after ChEMBL document CHEMBL1781972, “Daphnane-type diterpenoids from Trigonostemon howii” (J Nat Prod, 2011).)
